Experimental data published in ChEMBL document CHEMBL1201862, “PubChem BioAssay data set” (2004).
Counter-ions that a name gives are not always drawn. Calls of active or inactive are those of the source.

Tests used:
[1] = Late-stage results from the probe development effort to identify antagonists of arginine vasopressin receptor 1a (AVPR1a): fluorescence-based cell-based dose response AVPR1a inhibition assay.; assay type: functional
[2] = target: Vasopressin V2 receptor (Homo sapiens, UniProt P30518); assay: Late-stage results from the probe development effort to identify antagonists of arginine vasopressin receptor 1a (AVPR1a): fluorescence-based cell-based dose response AVPR2 inhibition counterscreen assay.; assay type: functional
[3] = Late-stage results from the probe development effort to identify antagonists of arginine vasopressin receptor 1a (AVPR1a): fluorescence-based cell-based dose response OXTR inhibition counterscreen assay.; assay type: functional
[4] = target: Vasopressin V1b receptor (Homo sapiens, UniProt P47901); assay: Late-stage results from the probe development effort to identify antagonists of arginine vasopressin receptor 1a (AVPR1a): fluorescence-based cell-based dose response AVPR1b inhibition counterscreen assay.; assay type: functional
[5] = viability loss in A549 lung cells – cell-based, 24 h, CellTiter-Glo luminescence, cherry-picks, cytotoxicity control, dose response (AID 1053115); assay type: functional; details: A549, 24 h
[6] = IC50 of Artemis nuclease activity blockers – biochemical, fluorescence intensity, dose response (AID 720701); assay type: functional;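 note: Artemis endonuclease enzyme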
[7] = viability loss in THP-1 monocytes – THP-1 cells, cytotoxicity control for Vif-APOBEC3G degradation inhibitor project, dose response (AID 1117359); assay type: functional; details: THP-1
[8] = NIH3T3 cell viability loss – ATP luminescence, mouse fibroblasts, counter-screen, dose response (AID 2010); assay type: functional, cell-based;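 note: cells exposed to compound for about 90 hours before reading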
[9] = Trypanosoma cruzi growth suppression in host cells – NIH3T3 host cells, beta-gal luminescence, confirmation (AID 2044); assay type: functional, cell-based;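 note: intracellular parasites grown in NIH/3T3 mouse fibroblasts as host cells; luminescent beta-galactosidase reporter signal from transgenic T. cruzi replicating inside host cells; inhibitors lower the luminescence signal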
[10] = Dd2 parasite growth inhibition in erythrocytes – SYBR Green, dry powder samples, set 9, dose response (AID 1159568); assay type: functional, cell-based
[11] = growth inhibition of yeast DHODH-expressing 3D7 parasites – SYBR Green, dry powder samples, dose response (AID 1159570); assay type: functional, cell-based;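 note: parasite growth measured after 72 hours of compound exposure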
[12] = toxicity to human HepG2 hepatoma cells – cell-based, plate reader, dry powder samples, cytotoxicity control, dose response (AID 1159569); assay type: functional;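 note: inhibitor potency with signal falling toward the positive control level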
[13] = P. falciparum Dd2 growth inhibitors, dose response, SYBR Green, cherry-picked samples (AID 1159567); assay type: functional, cell-based
[14] = toxicity to human hepatoma HepG2 cells – cell-based, cherry-picked samples, cytotoxicity control, dose response (AID 1159577); assay type: functional
[15] = growth inhibition of PfATP4-mutant resistant parasites – NITD609-resistant line, SYBR Green, dry powder, dose response (AID 1159571); assay type: functional, cell-based;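 note: parasites synchronized at ring stage by sorbitol before testing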
[16] = Dd2 malaria parasite growth inhibition potency – SYBR Green, dry powder samples, dose response (AID 1159566); assay type: functional, cell-based;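 note: potency for growth inhibition with lower SYBR green DNA signal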
[17] = glucagon-like peptide-1 release potency in STC-1, concentration-response, half-maximal inhibitory concentration in the STC-1 line (AID 1117345); assay type: functional, cell-based
[18] = Potency on glucagon-like peptide 1 release, dose-response in NCI-H716 cell line, half maximal inhibitory concentration (AID 1117344); assay type: functional, cell-based
[19] = CellTiter-Glo luminescence survival assay, SW480 colon tumor line, concentration-response curve, half-maximal inhibitory concentration (AID 1117338); assay type: functional
[20] = SNU-C1 cell viability reduction, dose response, CellTiter-Glo luminescence (AID 1117323); assay type: functional, cell-based
[21] = cytotoxicity toward HT-29 cells – cell-based, CellTiter-Glo luminescence, IC50, dose response (AID 1117330); assay type: functional
[22] = cytotoxicity toward HCT116 cells – cell-based, CellTiter-Glo luminescence, IC50, dose response (AID 1117332); assay type: functional; details: HCT-116
[23] = HCT116 cell viability decrease, GSK3B pretreatment – CellTiter-Glo, IC50, dose response (AID 1117339); assay type: functional; details: HCT-116
[24] = Reduced DLD-1 viability, concentration-response, CellTiter-Glo luminescence (AID 1117352); assay type: functional
[25] = cytotoxicity toward Colo320 cells – cell-based, CellTiter-Glo luminescence, IC50, dose response (AID 1117334); assay type: functional; details: COLO 320
[26] = RKO cell viability reduction, dose response, CellTiter-Glo luminescence (AID 1117322); assay type: functional

Vasopressin V2 receptor, sequence (P30518 whole entry): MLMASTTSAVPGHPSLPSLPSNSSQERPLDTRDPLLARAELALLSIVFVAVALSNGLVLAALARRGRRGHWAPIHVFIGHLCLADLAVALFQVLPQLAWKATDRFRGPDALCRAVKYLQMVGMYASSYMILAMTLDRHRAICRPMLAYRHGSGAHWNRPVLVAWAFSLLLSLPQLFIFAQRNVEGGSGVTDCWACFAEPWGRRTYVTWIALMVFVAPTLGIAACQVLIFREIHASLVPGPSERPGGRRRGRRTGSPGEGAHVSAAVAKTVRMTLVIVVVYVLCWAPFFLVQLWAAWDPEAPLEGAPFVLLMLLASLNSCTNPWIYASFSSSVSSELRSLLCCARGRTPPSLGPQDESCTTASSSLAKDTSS
Vasopressin V1b receptor, sequence (P47901 whole entry): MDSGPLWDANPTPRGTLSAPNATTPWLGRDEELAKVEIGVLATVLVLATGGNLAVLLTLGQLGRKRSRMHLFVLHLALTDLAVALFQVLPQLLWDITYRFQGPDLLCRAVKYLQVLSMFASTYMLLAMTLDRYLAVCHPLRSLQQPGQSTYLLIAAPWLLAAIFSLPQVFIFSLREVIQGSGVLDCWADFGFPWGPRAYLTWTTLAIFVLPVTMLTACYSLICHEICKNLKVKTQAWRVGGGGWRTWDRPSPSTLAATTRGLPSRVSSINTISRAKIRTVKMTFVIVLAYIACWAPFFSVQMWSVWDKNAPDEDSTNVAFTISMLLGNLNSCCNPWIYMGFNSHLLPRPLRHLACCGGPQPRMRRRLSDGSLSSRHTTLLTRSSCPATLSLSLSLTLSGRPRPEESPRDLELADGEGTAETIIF

O=C(N1CCC2(CC1)OCc1ccccc12)N(CC1CC1)c1ccccc1
IC50 [1]: 0.466 µM (active)
IC50 [2]: 20 µM (inactive)
IC50 [3]: 20 µM (inactive)
IC50 [4]: 25.1 µM (inactive)

C[C@@H](O)C#Cc1ccc2c(c1)O[C@@H](CN(C)Cc1ccccc1)[C@@H](C)CN([C@@H](C)CO)S2(=O)=O
AC50 [5]: > 60 µM (inactive)

N#Cc1ccc(-c2ccc3c(c2)[C@H]2[C@H](CCN2C(=O)C2CCCCC2)[C@@H](CO)N3)cc1
AC50 [5]: 48.7 µM (active)

O=C(NC(C(=O)N/N=C/c1c2ccccc2cc2ccccc12)c1nnc(O)c2ccccc12)c1ccccc1 (stereo not drawn)
IC50 [6]: > 20 µM (inactive)

COc1cccc(/C=N/NC(N)=S)c1OCc1ccccc1Cl
CC50 [7]: > 40 µM (active)
EC50 [8]: > 30 µM (not active)
EC50 [9]: 1.18 µM (active)

O=C(NCC[C@H]1CC[C@H](NC(=O)c2ccccc2F)[C@@H](CO)O1)c1cnccn1
AC50 [10]: 11 µM (active)

COc1ccc(C#Cc2ccc([C@@H]3[C@H](CO)N4CCCCN(C(=O)Nc5ccccc5F)C[C@@H]34)cc2)cc1
AC50 [11]: 1.02 µM (active)
AC50 [12]: 8.16 µM (active)
AC50 [13]: 1.42 µM (active)
AC50 [14]: 9.73 µM (active)
AC50 [15]: 0.771 µM (active)
AC50 [16]: 0.898 µM (active)

COc1ccc(C#Cc2ccc([C@@H]3[C@@H](CO)N4CCCCN(C(=O)Nc5cccc(F)c5)C[C@H]34)cc2)cc1
AC50 [11]: 0.738 µM (active)
AC50 [12]: 7.51 µM (active)
AC50 [13]: 1.66 µM (active)
AC50 [10]: 1.35 µM (active)
AC50 [15]: 0.698 µM (active)
AC50 [16]: 0.083 µM (active)

Cc1nnc2n1-c1sc(CCc3ccc(CC(C)C)cc3)cc1C(c1ccccc1Cl)=NC2C (stereo not drawn) [ISRAPAFANT]
IC50 [17]: > 40 µM (inactive)
IC50 [18]: 24.7 µM (inactive)

Cc1cccc(Nc2cc(Cl)nc(SCC(=O)O)n2)c1C [PIRINIXIC ACID]
IC50 [19]: > 20 µM (inactive)
IC50 [20]: > 20 µM (inactive)
IC50 [21]: > 20 µM (inactive)
IC50 [22]: > 20 µM (inactive)
IC50 [23]: > 20 µM (inactive)
IC50 [24]: > 20 µM (inactive)
IC50 [25]: > 20 µM (inactive)
IC50 [26]: > 20 µM (inactive)

C[C@@H]1CN(CCCn2c3ccccc3c3ccccc32)C[C@H](C)N1 [RIMCAZOLE HYDROCHLORIDE]
IC50 [17]: > 40 µM (inactive)
IC50 [19]: 2.35 µM (active)
IC50 [20]: 6.02 µM (inactive)
IC50 [21]: 4.02 µM (active)
IC50 [18]: 6.37 µM (inactive)
IC50 [22]: 10.5 µM (inactive)
IC50 [23]: 3.85 µM (active)
IC50 [24]: 9.8 µM (inactive)
IC50 [25]: 15.9 µM (inactive)
IC50 [26]: 2.18 µM (active)
